Where two headings read alike, the source gives them in different places. Non-standard residues stand in square brackets, D forms with d. Residues, ends and D or L forms follow the SMILES beside them. *: point of attachment. Dolaproine = CO[C@@H]([C@@H]1CCCN1)[C@@H](C)C(=O)O; Dil = CC[C@H](C)[C@H](NC)[C@@H](CC(=O)O)OC; X1 = C[C@@H](N*)[C@@H](O)c1ccccc1; NMeV = CN[C@H](C(=O)O)C(C)C

Holding throughout (assay type): cell-based
Assay [1] deals with ErbB2/HER2-positive human gastric cancer cells NCI-N87. As to the kind of experiment: Tumor cell proliferation inhibition (CellTiter Glo), NCI-N87. How it is done: (§1) 1) ErbB2/HER2-positive human breast cancer cells BT-474, ErbB2/HER2-positive human gastric cancer cells NCI-N87 and ErbB2/HER2-negative human liver cancer cells HepG2 were inoculated into a 96-well cell plate at 100 μL/well (1000 to 10000 cells), and incubated overnight in a cell incubator under the conditions of 37° C., 5% CO2, 95% air and 100% humidity.
(§2) 3) The cell plate was removed from the 37° C. cell incubator, and equilibrated for about 30 min to rt. 100 μL of CellTiter Glo reagent was added into each well, a shaker shook for 2 min, followed by standing in a dark place at rt for 10 min, and the relative light unit (RLU) was measured with a Cytation 3 microplate reader.
On the technique in general: In ATP-based viability assays light output follows the ATP content of the culture.

The test system of assay [2] is ErbB2/HER2-positive human breast cancer cells BT-474. Briefly: Tumor cell proliferation inhibition (CellTiter Glo), BT-474. The method, then:
as §1, §2

For assay [3], the system named is human liver cancer cells HepG2. As to the kind of experiment: Tumor cell proliferation inhibition (CellTiter Glo), HepG2. The method, then: as §1, §2
(§3) For example, BxPC-3, FaDu, HepG2 and other human tumor cells were selected.
(§4) For example, TROP2-positive human tumor cells such as BxPC-3 (human pancreatic cancer cell) and FaDu (human throat cancer cell), and TROP2-negative tumor cells such as HepG2 (human liver cancer cell) were selected.

The subject of assay [4] is FaDu (human throat cancer cell). As to the kind of experiment: Tumor cell proliferation inhibition, FaDu. How it is done:
as §1, §2, §3, §4

Assay [5] relates to BxPC-3 (human pancreatic cancer cell). As to the kind of experiment: Tumor cell proliferation inhibition, BxPC-3. How it is done:
as §1, §2, §3, §4

Turning to `CC[C@H](C)[C@@H]([C@@H](CC(=O)N1CCC[C@H]1[C@H](OC)[C@@H](C)C(=O)N[C@H](C)[C@@H](O)c1ccccc1)OC)N(C)C(=O)[C@@H](NC(=O)[C@@H](NC)C(C)C)C(C)C` [MMAE, monomethylauristatin E] (H-[NMeV]V[Dil][Dolaproine]-X1), the IC50 in assay [1] (NCI-N87, ErbB2/HER2-positive, 72 to 120 h, read-out: Proliferation Inhibition Effect on Tumor Cells (IC50)) stood at 0.248 nM; in assay [2] (BT-474, ErbB2/HER2-positive, 72 to 120 h, read-out: Proliferation Inhibition Effect on Tumor Cells (IC50)), 0.272 nM; in assay [3] (HepG2, ErbB2/HER2-negative, 72 to 120 h, read-out: Proliferation Inhibition Effect on Tumor Cells (IC50)) it was 0.567 nM; in assay [3] (HepG2, TROP2-negative, Table 7, read-out: Proliferation Inhibition Action on Tumor Cells (IC50)), 0.398 nM; in assay [4] (TROP2-positive, Table 7, read-out: Proliferation Inhibition Action on Tumor Cells (IC50)), 0.167 nM; in assay [5] (BxPC-3, TROP2-positive, Table 7, read-out: Proliferation Inhibition Action on Tumor Cells (IC50)), 0.388 nM. Also, the “maximum killing percentage relative to the control group” value in assay [1] (NCI-N87, control puromycin 5 μM) is listed as 90.78%; in assay [2] (BT-474, control puromycin 5 μM) it was 86.46%; in assay [3] (HepG2, ErbB2/HER2-negative, control puromycin 5 μM) it was 74.88%; in assay [3] (HepG2, TROP2-negative) it was 83.43%; in assay [4], 90.87%; in assay [5] (BxPC-3), 99.56%.

Values taken from patent US12318457B2, “Oligosaccharide linker, linker-payload comprising the same and glycan chain-remodeled antibody-drug conjugate, preparation methods and uses thereof” (GENEQUANTUM HEALTHCARE (SUZHOU) CO., LTD., priority 2022, dated 2025).
